Source: ChEMBL document CHEMBL5120839, “Design, synthesis and antibacterial activity of novel pleuromutilin derivatives with thieno[2,3-d]pyrimidine substitution” (Eur J Med Chem, 2022)
Converted amounts (≈) assume the structure as drawn. The source made the active and inactive calls. The rule behind the calls is not given here.

Legend:
[1] = system: Staphylococcus aureus; assay: Antibacterial activity against Staphylococcus aureus assessed as inhibition of bacterial growth incubated for 24 hrs by microbroth two-fold dilution method; format: functional
[2] = system: Staphylococcus aureus; assay: Bactericidal activity against Staphylococcus aureus assessed as bacterial killing at 32 times MIC incubated for 12 hrs by time kill assay; format: functional
[3] = system: Staphylococcus aureus; assay: Bactericidal activity against Staphylococcus aureus assessed as bacterial killing at 16 times MIC incubated for 12 hrs by time kill assay; format: functional
[4] = system: Streptococcus agalactiae; assay: Antibacterial activity against Streptococcus agalactiae assessed as bacterial growth by measuring optical density at 0.5 times MIC incubated for 12 hrs by real time growth curve analysis; format: functional
[5] = system: Staphylococcus aureus; assay: Bactericidal activity against Staphylococcus aureus assessed as bacterial killing at 1 to 4 times MIC incubated up to 24 hrs by time kill assay; format: functional
[6] = system: Escherichia coli; assay: Antibacterial activity against Escherichia coli assessed as inhibition of bacterial growth incubated for 24 hrs by microbroth two-fold dilution method; format: functional
[7] = system: Escherichia coli; assay: Antibacterial activity against Escherichia coli assessed as bacterial growth by measuring optical density at 1 to 2 times MIC incubated for 12 hrs by real time growth curve analysis; format: functional
[8] = system: Escherichia coli; assay: Antibacterial activity against Escherichia coli assessed as bacterial growth by measuring optical density at 0.5 times MIC incubated for 12 hrs by real time growth curve analysis; format: functional
[9] = system: Staphylococcus aureus; assay: Antibacterial activity against Staphylococcus aureus assessed as diameter of the inhibition circle at 1 mg/ml incubated for 48 hrs; format: functional
[10] = system: Staphylococcus aureus; assay: Bactericidal activity against Staphylococcus aureus assessed as bacterial killing at 32 times MIC incubated for 9 hrs by time kill assay; format: functional
[11] = system: Staphylococcus aureus; assay: Antibacterial activity against Staphylococcus aureus assessed as bacterial growth by measuring optical density incubated for 12 hrs by real time growth curve analysis; format: functional
[12] = system: Staphylococcus aureus; assay: Antibacterial activity against Methicillin-resistant Staphylococcus aureus BNCC 337371 assessed as inhibition of bacterial growth incubated for 24 hrs by microbroth two-fold dilution method; format: functional
[13] = system: L02; assay: Cytotoxicity against human L02 cells assessed as cell viability incubated for 16 hrs by MTT assay; format: toxicity, cell-based; conditions: l02, 16 h
[14] = system: HEK-293T; assay: Cytotoxicity against human HEK293T cells assessed as cell viability incubated for 16 hrs by MTT assay; format: toxicity, cell-based
[15] = system: Streptococcus agalactiae; assay: Antibacterial activity against Streptococcus agalactiae assessed as bacterial growth by measuring optical density at 1 to 2 times MIC incubated for 12 hrs by real time growth curve analysis; format: functional
[16] = system: Streptococcus agalactiae; assay: Antibacterial activity against Streptococcus agalactiae assessed as inhibition of bacterial growth incubated for 24 hrs by microbroth two-fold dilution method; format: functional
[17] = system: Mycoplasmoides pneumoniae; assay: Antibacterial activity against Mycoplasma pneumoniae assessed as inhibition of bacterial growth; format: functional
[18] = system: Shigella dysenteriae; assay: Antibacterial activity against Shigella dysenteriae assessed as inhibition of bacterial growth; format: functional
[19] = system: Staphylococcus aureus; assay: Bactericidal activity against Staphylococcus aureus assessed as bacterial killing at 8 times MIC incubated up to 24 hrs by time kill assay; format: functional, organism-based

Compound | MIC [1] [µg/mL] | Activity [2] [%] | Activity [3] [%] | OD [4] | Activity [5] [%] | MIC [6] [µg/mL] | OD [7] | OD [8] | inhibition zone diameter [9] [mm] | Activity [10] [%] | OD [11] | MIC [12] [µg/mL] | Activity [13] | Activity [14] | OD [15] | MIC [16] [µg/mL] | MIC [17] [µg/mL] | MIC [18] [µg/mL] | Activity [19]
C=C[C@]1(C)C[C@@H](OC(=O)CSc2nc(N3CCN(CC)CC3)c3ccsc3n2)[C@]2(C)[C@H](C)CC[C@]3(CCC(=O)[C@H]32)[C@@H](C)[C@@H]1O | 0.0019 (≈ 0.00296 µM) | 99.9 | 99.9 | <0.3 | 99.9 | 0.122 (≈ 0.191 µM) | 0.1 | <0.3 | 33.5 | 99.9 | <0.2 | 0.0076 (≈ 0.0119 µM) | Non-Toxic | Non-Toxic | 0.1 | 0.122 (≈ 0.191 µM) |  |  | 
C=C[C@]1(C)C[C@@H](OC(=O)CSC(C)(C)CNC(=O)[C@H](N)C(C)C)[C@]2(C)[C@H](C)CC[C@]3(CCC(=O)[C@H]32)[C@@H](C)[C@@H]1O [VALNEMULIN] |  |  |  |  |  |  |  |  |  |  |  |  |  |  |  |  | 0.03 (≈ 0.0531 µM) | 0.03 (≈ 0.0531 µM) | 
C=C[C@]1(C)C[C@@H](OC(=O)CSc2nc(NCCO)c3ccsc3n2)[C@]2(C)[C@H](C)CC[C@]3(CCC(=O)[C@H]32)[C@@H](C)[C@@H]1O | 0.0019 (≈ 0.00323 µM) |  |  | <0.3 | 99.9 | 0.0076 (≈ 0.0129 µM) | 0.1 | <0.3 | 33 |  | <0.2 | 0.0019 (≈ 0.00323 µM) | Non-Toxic | Non-Toxic | 0.1 | 0.0019 (≈ 0.00323 µM) |  |  | 
C=C[C@]1(C)C[C@@H](OC(=O)CSc2nc(N3CCNCC3)c3ccsc3n2)[C@]2(C)[C@H](C)CC[C@]3(CCC(=O)[C@H]32)[C@@H](C)[C@@H]1O | 0.0076 (≈ 0.0124 µM) |  |  | <0.3 |  | 0.976 (≈ 1.59 µM) | 0.1 | <0.3 | 26.8 |  | <0.3 | 0.122 (≈ 0.199 µM) |  |  | 0.1 | 0.0153 (≈ 0.025 µM) |  |  | 
C=C[C@]1(C)C[C@@H](OC(=O)CSCCN(CC)CC)[C@]2(C)[C@H](C)CC[C@]3(CCC(=O)[C@H]32)[C@@H](C)[C@@H]1O [TIAMULIN] | 0.488 (≈ 0.989 µM) |  |  |  |  | 15.6 (≈ 31.6 µM) |  |  | 25.2 |  |  | 0.488 (≈ 0.989 µM) |  |  |  | 0.122 (≈ 0.247 µM) |  |  | Active
